Assay results taken from US8871728B2, “Non-peptide macrocyclic histone deacetylese (HDAC) inhibitors and methods of making and using thereof” (Georgia Tech Research Corporation, priority 2007, dated 2014).
Values after ≈ are worked out from the molar mass of the structure shown. Values joined by “and” are separate entries in the source; they are usually repeats but may differ in a detail not shown here. Equal entries are not always repeated. Where two headings read alike, the source gives them in different places.

Legend:
[1] = system: HeLa nuclear extract HDAC1/2; experiment: Fluor de Lys HDAC inhibition, HeLa nuclear extract; type: biochemical, human
Description: Fluor de Lys™ is a fluorescence based HDAC activity assay comprising a combination of fluorogenic Histone deAcetylase Lysyl substrate and a developer. The kit is a highly sensitive and convenient alternative to radiolabeled, acetylated histones or peptide/HPLC methods for the assay of histone deacetylases. This assay is based on the ability of HeLa nuclear extract, which is enriched in HDAC activity, to mediate the deacetylation of the acetylated lysine side chain of the Fluor de Lys substrate. The assay procedure requires two steps. First, incubation of the HeLa nuclear extract with the Fluor de Lys substrate results in substrate deacetylation and thus sensitizes it to the second step. In the second step, treatment of the deacetylated substrate with the Fluor de Lys developer produces a fluorophore. The substrate-developer reaction, under normal circumstances goes to completion in less than 1 min at 25° C. The kit used was the Fluorimetric Assay/Drug Discovery Kit—AK-500 Manual Fluorescent Assay System available from BIOMOL® International, Plymouth Meeting, Pa.
Each IC50 value was obtained by averaging three independent experiments.

[2] = system: promastigote stage of L. donovani; experiment: Antileishmanial Alamar blue fluorometric assay; type: cell-based; details: promastigotes
Procedure: (§1) The compounds described herein were also evaluated for parasitic activity against Plasmodium falciparum and Leismania donovani. P. falciparum and L. donovani are the causative parasites of malaria and leishmaniasis, two human diseases which constitute a serious threat to public health in tropical and sub-tropical countries. Antimalarial activity was evaluated in vitro using chloroquine-sensitive (D6, Sierra Leone) and chloroquine-resistant (W2, Indochina) strains of P. falciparum. Antileishmanial activity was evaluated in vitro against the promastigote stage of L. donovani.
(§2) Plasmodium growth inhibition was determined by a parasite lactate dehydrogenase assay using Malstat reagent. Inhibition of viability of the promastigote stage of L. donovani was determined using standard Alamar blue assay, modified to a fluorometric assay.
as §1, with “Macrocyclic histone deacetylase inhibitors” for “The compounds described herein”, “were” for “were also”
as §2

[3] = target: T1, HDAC8 (Homo sapiens (Human), UniProt Q9BY41); experiment: Fluor de Lys HDAC8 inhibition; type: biochemical; details: average of three independent experiments; Table 4; read-out: HDAC 8
[4] = system: Plasmodium falciparum (D6 clone), chloroquine-sensitive; experiment: Plasmodium growth inhibition, parasite lactate dehydrogenase assay (Malstat); type: cell-based; details: for IC50: Plasmodium falciparum; for Plasmodium falciparum (D6 clone) IC50: chloroquine-sensitive
Procedure: as §1, §2
as §1, with “Macrocyclic histone deacetylase inhibitors” for “The compounds described herein”, “were” for “were also”
as §2

[5] = system: Plasmodium falciparum (W2 clone), chloroquine-resistant; experiment: as above; type: cell-based; details: for IC50: Plasmodium falciparum; for Plasmodium falciparum (W2 clone) IC50: chloroquine-resistant
Procedure: as §1, §2
as §1, with “Macrocyclic histone deacetylase inhibitors” for “The compounds described herein”, “were” for “were also”
as §2

[6] = target: HDAC1 (Homo sapiens (Human), UniProt Q13547); experiment: SAMDI mass spectrometry HDAC inhibition assay; type: biochemical; details: for HDAC1 inhibition, symbol: SAMDI
Procedure: (§3) There is precedence that fluorescently labeled substrates can perturb enzyme activity and the effect of inhibitors. […] Additionally, 3-hydroxypyridine-2-ones are highly colored solids and might lead to false positive signals. Mindful of these facts, a label-free SAMDI (self-assembled monolayers for MALDI) mass spectrometry assay was also used to assess HDAC inhibition.
(§4) The SAMDI technique, wherein self-assembled monolayers (SAM) of alkanethiolates on gold are analyzed by matrix assisted laser desorption/ionization (MALDI) mass spectrometry, has been widely used to characterize many biochemical activities, including the deacetylase enzyme family.

[7] = target: T1, HDAC8; experiment: SAMDI mass spectrometry HDAC inhibition assay; type: biochemical
Procedure: as §3, §4

[8] = target: HDAC6 (Homo sapiens (Human), UniProt Q9UBN7); experiment: SAMDI mass spectrometry HDAC inhibition assay; type: biochemical; details: for HDAC6 inhibition, symbol / IC50: SAMDI; for IC50: read-out: HDAC6 IC50; for inhibition at 10 µM: read-out: HDAC6 % inhibition
Procedure: as §3
as §4, with “family. The SAMDI assay was used to measure the inhibition constant (K1) of fragments against HDAC1, HDAC6 and HDAC8 using a previously identified preferred HDAC substrate.” for “family.”

[9] = HeLa nuclear extract, average of three independent experiments, Table 4, read-out: HDAC ½
[10] = D6, chloroquine-sensitive, read-out: Plasmodium falciparum (D6 clone) IC50
[11] = W2, chloroquine-resistant, read-out: Plasmodium falciparum (W2 clone) IC50
[12] = at 10 μM, given if the IC50 was above 10 μM

Chain of HDAC6 (Q9UBN7 whole entry): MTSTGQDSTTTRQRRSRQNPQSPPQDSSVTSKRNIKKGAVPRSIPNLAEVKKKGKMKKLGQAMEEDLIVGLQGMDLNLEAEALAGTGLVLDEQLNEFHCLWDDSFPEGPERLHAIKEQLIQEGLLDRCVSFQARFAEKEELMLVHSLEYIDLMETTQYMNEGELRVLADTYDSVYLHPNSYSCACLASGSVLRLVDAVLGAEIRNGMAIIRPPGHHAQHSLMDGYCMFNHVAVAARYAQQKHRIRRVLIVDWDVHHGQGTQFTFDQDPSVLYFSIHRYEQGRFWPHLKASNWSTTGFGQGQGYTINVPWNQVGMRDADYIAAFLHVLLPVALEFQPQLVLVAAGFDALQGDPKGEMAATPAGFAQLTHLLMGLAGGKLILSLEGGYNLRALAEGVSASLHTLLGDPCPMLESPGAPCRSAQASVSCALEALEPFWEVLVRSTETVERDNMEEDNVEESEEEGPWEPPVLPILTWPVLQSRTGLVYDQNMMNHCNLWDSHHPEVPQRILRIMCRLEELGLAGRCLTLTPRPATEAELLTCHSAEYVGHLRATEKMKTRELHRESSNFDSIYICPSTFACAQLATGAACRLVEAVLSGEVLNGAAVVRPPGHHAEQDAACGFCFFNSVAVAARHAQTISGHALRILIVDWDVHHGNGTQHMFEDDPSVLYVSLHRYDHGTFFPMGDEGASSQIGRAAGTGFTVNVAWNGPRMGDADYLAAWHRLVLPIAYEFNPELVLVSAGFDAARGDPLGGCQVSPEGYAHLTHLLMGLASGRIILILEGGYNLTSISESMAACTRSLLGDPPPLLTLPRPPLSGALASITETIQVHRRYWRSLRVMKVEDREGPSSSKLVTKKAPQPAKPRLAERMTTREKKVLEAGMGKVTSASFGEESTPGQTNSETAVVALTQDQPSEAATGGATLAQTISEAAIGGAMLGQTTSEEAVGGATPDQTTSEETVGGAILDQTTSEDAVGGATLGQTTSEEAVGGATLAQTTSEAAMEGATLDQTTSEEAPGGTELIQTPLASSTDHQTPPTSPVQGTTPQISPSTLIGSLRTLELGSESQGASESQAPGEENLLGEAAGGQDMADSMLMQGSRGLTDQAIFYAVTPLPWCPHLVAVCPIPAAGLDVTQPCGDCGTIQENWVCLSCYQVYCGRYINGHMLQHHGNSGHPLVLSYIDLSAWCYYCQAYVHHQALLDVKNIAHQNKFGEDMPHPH
T1 sequence (Q9BY41 whole entry): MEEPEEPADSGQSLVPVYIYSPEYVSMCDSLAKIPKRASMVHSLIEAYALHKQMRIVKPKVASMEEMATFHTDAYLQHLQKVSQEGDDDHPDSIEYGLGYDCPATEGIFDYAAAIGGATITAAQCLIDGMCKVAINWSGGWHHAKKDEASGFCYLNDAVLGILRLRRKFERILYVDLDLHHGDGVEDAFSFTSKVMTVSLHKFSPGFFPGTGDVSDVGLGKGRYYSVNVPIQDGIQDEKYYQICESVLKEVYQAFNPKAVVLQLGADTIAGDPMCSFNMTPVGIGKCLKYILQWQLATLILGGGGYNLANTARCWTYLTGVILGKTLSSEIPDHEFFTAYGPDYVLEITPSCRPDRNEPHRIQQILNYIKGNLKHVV
Chain of HDAC1 (Q13547 whole entry): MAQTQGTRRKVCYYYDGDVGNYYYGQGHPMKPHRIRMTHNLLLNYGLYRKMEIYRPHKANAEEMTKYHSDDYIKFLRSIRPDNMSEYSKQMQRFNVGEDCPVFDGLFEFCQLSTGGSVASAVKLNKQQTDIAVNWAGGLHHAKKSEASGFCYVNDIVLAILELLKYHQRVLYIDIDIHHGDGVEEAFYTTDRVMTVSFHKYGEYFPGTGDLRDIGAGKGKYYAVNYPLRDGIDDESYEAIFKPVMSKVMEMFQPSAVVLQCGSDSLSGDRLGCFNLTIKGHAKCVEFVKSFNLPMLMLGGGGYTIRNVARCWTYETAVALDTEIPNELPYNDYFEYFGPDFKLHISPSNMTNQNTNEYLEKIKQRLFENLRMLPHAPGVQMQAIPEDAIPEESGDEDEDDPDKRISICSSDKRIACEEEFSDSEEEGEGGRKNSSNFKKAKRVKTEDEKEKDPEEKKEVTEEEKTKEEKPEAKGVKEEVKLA

CC[C@H]1OC(=O)[C@H](C)[C@@H](O[C@H]2C[C@@](C)(OC)[C@@H](O)[C@H](C)O2)[C@H](C)[C@@H](O[C@@H]2O[C@H](C)C[C@H](N(C)Cc3ccc(-c4cn(CCCCCCCCCC(=O)NO)nn4)cc3)[C@H]2O)[C@](C)(OC)C[C@@H](C)C(=O)[C@H](C)[C@@H](O)[C@]1(C)O [Compound 30, Clarithromycin-N-Phenyltriazolyldecahydroxamic acid]
IC50 [1, 9]: 223 nM

C[C@@H]1[C@H](O)[C@@H](C)/C=C/C=C/C=C/C=C/C=C/C=C/C=C/[C@H](O[C@@H]2O[C@H](C)[C@@H](O)[C@H](N)[C@@H]2O)C[C@@H]2O[C@](O)(C[C@@H](O)C[C@@H](O)[C@H](O)CC[C@@H](O)C[C@@H](O)CC(=O)O[C@H]1C)C[C@H](O)[C@H]2C(=O)O [Amphotericine B, Amphotericin B, reference compound]
Antileshmanial activity IC90 [2]: 0.32 µg/mL and 0.3 µg/mL

CC[C@H]1OC(=O)[C@H](C)[C@@H](O)[C@H](C)[C@@H](O[C@@H]2O[C@H](C)C[C@H](N(C)Cc3ccc(NC(=O)CCCCCCC(=O)NO)cc3)[C@H]2O)[C@](C)(O)C[C@@H](C)CN(C)[C@H](C)[C@@H](O)[C@]1(C)O [Compound 38, Desclasinose-azithromycin-arylalkyl hydroxamic acid]
IC50 [3]: 2320 nM | IC50 [1, 9]: 110 nM

C=C1C[C@H](CC)C(C)(C)[C@H](C)[C@@H](C)N(C)C[C@H](C)CC(C)(C)[C@H](C[C@@H]2C[C@H](C)C[C@H](N(C)Cc3ccc(C(C)C)cc3)[C@H]2C)[C@@H](C)[C@H](C)[C@H]1C [Compd 4]
IC50 [4, 10]: 1.3 µg/mL (≈ 1.88 µM) | S.I. D6 ([4]; selective toxicity index, Vero versus D6): > 3.7 | IC50 [5, 11]: 1.7 µg/mL (≈ 2.46 µM) | S.I. (W2) ([5]; selective toxicity index, Vero versus W2, value in brackets): > 2.8 | IC50 ([1]; Table 8, read-out: HDAC Inhibition IC50): 88.8 nM

CCN(CC)CCCC(C)Nc1ccnc2cc(Cl)ccc12 (centres unmarked) [Chloroquine, chloroquine, reference compound]
IC50 ([4]; D6, read-out: Plasmodium falciparum (D6 clone) IC50 (μg/ml), chloroquine-sensitive): 0.017 µg/mL (≈ 0.0531 µM) | Plasmodium falciparum (D6 clone) IC50 [4]: 0.011 µg/mL | IC50 ([5]; W2, read-out: Plasmodium falciparum (W2 clone) IC50 (μg/ml), chloroquine-resistant): 0.125 µg/mL (≈ 0.391 µM) | Plasmodium falciparum (W2 clone) IC50 [5]: 0.14 µg/mL

C[C@@H]1CC[C@H]2[C@@H](C)C(=O)O[C@@H]3O[C@@]4(C)CC[C@@H]1[C@]32OO4 [Artemisinin, artemisinin, reference compound]
IC50 [4, 10]: 0.004 µg/mL (≈ 0.0142 µM) | Plasmodium falciparum (D6 clone) IC50 [4]: 0.006 µg/mL | IC50 [5, 11]: 0.006 µg/mL (≈ 0.0213 µM) | Plasmodium falciparum (W2 clone) IC50 [5]: 0.009 µg/mL

N#Cc1cccc(-c2cn(CCCCCn3cccc(O)c3=O)nn2)c1 [Compound 166e, 1-(3-Benzonitrile)triazolylpentyl-3-hydroxypyridine-2-one]
inhibition at 10 µM [6, 12]: 71% | HDAC8 inhibition, symbol ([7]; SAMDI): NI (No significant Inhibition (below 20% Inhibition)) | HDAC6 inhibition, symbol [8]: NI (No significant Inhibition (below 20% Inhibition))

O=c1c(O)cccn1CCCCn1cc(-c2ccccc2)nn1 [Compound 159c, 1-Phenyltriazolylbutyl-3-hydroxypyridine-2-one]
HDAC1 % inhibition [6, 12]: 12% | inhibition at 10 µM [6, 12]: 15% | HDAC8 % inhibition [7, 12]: 5% | inhibition at 10 µM [7, 12]: 10% | HDAC6 inhibition, symbol [8]: NI (No significant Inhibition (below 20% Inhibition))

Cc1cccc(-c2ccc(Cn3cccc(O)c3=O)cc2)c1 [Compound 148e, 1-(3-Methyl-(1,1′-biphenylmethyl))-3-hydroxyoxypyridine-2-one]
HDAC1 inhibition, symbol [6]: NI (No significant Inhibition (below 20% Inhibition)) | HDAC8 inhibition, symbol ([7]; SAMDI): NI (No significant Inhibition (below 20% Inhibition)) | HDAC6 inhibition, symbol [8]: NI (No significant Inhibition (below 20% Inhibition))

Oc1cccn(Cc2ccccc2)c1=S [Compound 144b, 1-Benzyl-3-hydroxypyridine-2-thione]
HDAC1 inhibition, symbol [6]: NI (No significant Inhibition (below 20% Inhibition)) | HDAC8 activity, fold superior compared to 144e ([7]; SAMDI): 2 fold | IC50 ([7]; SAMDI, read-out: HDAC8 IC50): 1270 ± 200 nM | IC50 [8]: 457 ± 27 nM

Cc1cccc(-c2cn(CCCCCn3cccc(O)c3=O)nn2)c1 [Compound 166b, 1-(3-Tolyl)triazolylpentyl-3-hydroxypyridine-2-one]
inhibition at 10 µM [6, 12]: 88% | HDAC8 inhibition, symbol ([7]; SAMDI): NI (No significant Inhibition (below 20% Inhibition)) | HDAC6 inhibition, symbol [8]: NI (No significant Inhibition (below 20% Inhibition))

O=c1c(O)cccn1CCCn1cc(-c2ccccc2)nn1 [Compound 159b, 1-Phenyltriazolylpropyl-3-hydroxypyridine-2-one]
inhibition at 10 µM [6, 12]: 8% | inhibition at 10 µM [7, 12]: 47% | inhibition at 10 µM [8]: 41%

Oc1cccn(CCn2cc(-c3ccccc3)nn2)c1=S [Compound 161, 1-Phenyltriazolylethyl-3-hydroxypyridine-2-thione]
inhibition at 10 µM [6, 12]: 21% | inhibition at 10 µM [7, 12]: 56% | inhibition at 10 µM [8]: 14%

N#Cc1cccc(-c2ccc(Cn3cccc(O)c3=S)cc2)c1 [Compound 149b, 1-(3-Cyano-(1,1′-biphenylmethyl))-3-hydroxyoxypyridine-2-thione]
HDAC1 inhibition, symbol [6]: NI (No significant Inhibition (below 20% Inhibition)) | IC50 ([7]; SAMDI, read-out: HDAC8 IC50): 1700 ± 717 nM | IC50 ([7]; SAMDI, read-out: HDAC8 activity (IC50)): ~2000 nM | inhibition at 10 µM [8]: 44%

N#Cc1ccc(-c2cn(CCCCCn3cccc(O)c3=S)nn2)cc1C(F)(F)F [Compound 167g, 1-(4-(3-Trifluomethyl)-benzonitrile)triazolylpentyl-3-hydroxypyridine-2-thione]
inhibition at 10 µM [6, 12]: 55% | IC50 ([7]; SAMDI, read-out: HDAC8 IC50): 2260 nM | IC50 [8]: 661 ± 121 nM

CC[C@H]1OC(=O)[C@H](C)[C@@H](O[C@H]2C[C@@](C)(OC)[C@@H](O)[C@H](C)O2)[C@H](C)[C@@H](O[C@@H]2O[C@H](C)C[C@H](N(C)Cc3ccc(NC(=O)CCCCCCC(=O)NO)cc3)[C@H]2O)[C@](C)(O)C[C@@H](C)CN(C)[C@H](C)[C@@H](O)[C@]1(C)O [Compound 36, Azithromycin-arylalkyl hydroxamic acid]
IC50 [3]: 6680 nM | IC50 [1, 9]: 107 nM

N#Cc1ccccc1-c1ccc(Cn2cccc(O)c2=O)cc1 [Compound 148c, 1-(2-Cyano-(1,1′-biphenylmethyl))-3-hydroxyoxypyridine-2-one]
HDAC1 inhibition, symbol [6]: NI (No significant Inhibition (below 20% Inhibition)) | inhibition at 10 µM [7, 12]: 9% | inhibition at 10 µM [8]: 5%

CN(C)c1ccc(-c2ccc(Cn3cccc(O)c3=S)cc2)cn1 [Compound 149h]
HDAC1 inhibition, symbol [6]: NI (No significant Inhibition (below 20% Inhibition)) | inhibition at 10 µM [7, 12]: 34% | IC50 [8]: 2390 ± 458 nM

Cc1ccc(-c2ccc(Cn3cccc(O)c3=O)cc2)cc1 [Compound 148d, 1-(4-Methyl-(1,1′-biphenylmethyl))-3-hydroxyoxypyridine-2-one]
HDAC1 inhibition, symbol [6]: NI (No significant Inhibition (below 20% Inhibition)) | inhibition at 10 µM [7, 12]: 25% | HDAC6 inhibition, symbol [8]: NI (No significant Inhibition (below 20% Inhibition))

Oc1cccn(Cc2ccc(-c3ccncc3)cc2)c1=S [Compound 149i, 1-(4-(Pyridin-4-yl)benzyl)-3-hydroxypyridine-2-thione]
HDAC1 inhibition, symbol [6]: NI (No significant Inhibition (below 20% Inhibition)) | IC50 ([7]; SAMDI, read-out: HDAC8 IC50): 2780 ± 323 nM | IC50 [8]: 2200 ± 355 nM

CN(C)c1ccc(-n2cc(Cn3cccc(O)c3=O)nn2)cc1 [Compound 152b, 1-(4-Dimethylamino)phenylltriazolylmethyl-3-hydroxypyridine-2-one]
HDAC1 inhibition, symbol [6]: NI (No significant Inhibition (below 20% Inhibition)) | inhibition at 10 µM [7, 12]: 8% | HDAC6 inhibition, symbol [8]: NI (No significant Inhibition (below 20% Inhibition))
